Measured values: patent US12559506B2, “Indazole based compounds and associated methods of use” (Arvinas Operations, Inc., priority 2021, dated 2026)
Like-named read-outs stand apart in the source and are kept apart here.

Target: T1, LRRK2 (endogenous, HiBit tagged) (Homo sapiens, UniProt Q5S007)
T1 construct: endogenous in cells; host or cells: HEK293 cells with HiBit knock-in at the endogenous LRRK2 locus, stably expressing firefly luciferase
Assay: Endogenous LRRK2 degradation assay, endogenous gene C-terminally HiBit-tagged in HEK293 cells (Nano-Glo Dual Luciferase)
Assay type: cell-based
Excerpt: Exemplary Assay for Testing LRRK2 Degradation Driven by Exemplary Hetero-Bifunctional Compounds Designed to Target LRRK2
The assay measures the degradation of LRRK2 in cells where the C-terminus (3′) of the endogenous gene has been tagged with a HiBit sequence in HEK293 cells. The cells also express firefly luciferase, expressed from a Cytomegalovirus promoter and introduced into the HiBit tagged cells and stably expressed. The Nano-Glo® Dual Luciferase Reporter Assay System (Promega™, Madison, WI) was utilized.
Day 1—Preparation of Compound and Assay Plates. Two sets of plates were prepared: a triplicate set for the HiBit assay in white 384-well plates and a triplicate set of plate in black 384-well plates for the Alamar Blue cell viability assay. Briefly, the growth media (DMEM+Glutamax-10% fetal bovine serum-1% Penicillin-Streptomicin) from two T128 flasks was aspirated from the flasks. Cells were washed with Dulbecco's Phosphate Buffered Saline (dPBS) and aspirated. Trypsin (3 mL per flask) was added and the flasks were incubated for 2-3 minutes.
Ten mL of OptiMEM-10% fetal bovine-1% penicillin-streptomycin (hereinafter, “OptiMEM media”) was added to the flask and the cells and transferred to a 50 mL conical tube. A cell count (25 ul of cell into Effendorf vial+25 ul of Trypan Blue Stain) was performed and the cell density adjusted to 15,000 cell/45 μl/well (3.33×10^5/mL) in OptiMEM media.
Fourty-five microliters of the cell suspension (15,000 cells) was aliquoted to each well of the white 384-well plate. The plates incubated at room temperature for 10 minutes before being placed in the 37° C.+5% CO2 incubator overnight
Day 2—Compound Treatment. Exemplary compounds were prepared at a 1 mM starting concentration and 1:3 serial dilution for 11 points CRC prepared and stored in the freezer. The Master Compound Plate was thawed overnight at room temperature. DMSO (20 μL) was added into column 24 of the Master Compound Plate for negative control and 20 μL of 300 μM of Compound 4 in column 23 as positive control.
Intermediate Compound Plate with 4% DMSO in OptiMEM Media. DMSO was added to warm OptiMEM media to achieve a 4% DMSO solution (approximately 50 mL/plate). One-hundred microliters of the OptiMEM-4% DMSO was aliquoted to each well of 384-Well Deep Well Microplates.
The Master Compound Plate and the Intermediate Compound Plate were spun down.
One microliter of compound from the Master Compound Plate was transferred into the Intermediate plate (a 1:100 dilution). The diluted mixture was mixed and 5 μL transferred into the assay plate (a 1:10 dilution) for the final starting concentration of 1 μM. The Treated Assay plates were incubated for 24 hours at 37° C.+5% CO2. The Master Compound Plate was sealed and store at room temperature for a second run that was performed within a week.
Day 3—HiBit Assay. Five microliters of Alamar Blue was added to each well of the black 384-well plates. The plates were incubated for 2 hours in the incubator (37° C.+5% CO2) and at room temperature for one hour. Fluorescence of each plate was read on a plated reader for the Alamar Blue viability assay.
One set of white assay plates was warmed to room temperature (45 minute).
The One Glo luciferase mixture was prepared. The media from white 384-well assay plates was aspirated. Twenty-five μL of the One Glo luciferase mixture was added to each well of the assay plates. The plates were incubated on the bench (room temperature) for 45 minutes, including 10 minutes of shaking at 700 rpm. The luminescence of each plate was read on a plate reader.
1:100 DLR substrate and 1:100 LgBiT Protein dilution were added to the Promega Stop and Glo buffer and mixed just before addition to assay plates. Twenty-five microliters of Stop and Glo mixture was added to each well. Assay plates incubated for at least 45 minutes, including 10 minutes of shaking at 700 rpm. The luminescence of each plate was read on a plate reader.
Analysis of LRRK2 HiBit Screening assays. […]

[1] = endogenous HiBit-tagged LRRK2 in HEK293 cells, 24 hours treatment, read-out: Endogenous WT DC50
[2] = endogenous HiBit-tagged LRRK2 in HEK293 cells, 24 hours treatment, read-out: Endogenous WT Dmax
[3] = endogenous HiBit-tagged LRRK2 in HEK293 cells, 24 hours treatment, read-out: **Endogenous WT Dmax (%)
[4] = endogenous HiBit-tagged LRRK2 in HEK293 cells, 24 hours treatment, read-out: *Endogenous WT DC50
[5] = endogenous HiBit-tagged LRRK2, HEK293 cells, 24 hours, read-out: **Endogenous WT Dmax (%)
[6] = endogenous HiBit-tagged LRRK2, HEK293 cells, 24 hours, read-out: *Endogenous WT DC50

T1 sequence (Q5S007 whole entry): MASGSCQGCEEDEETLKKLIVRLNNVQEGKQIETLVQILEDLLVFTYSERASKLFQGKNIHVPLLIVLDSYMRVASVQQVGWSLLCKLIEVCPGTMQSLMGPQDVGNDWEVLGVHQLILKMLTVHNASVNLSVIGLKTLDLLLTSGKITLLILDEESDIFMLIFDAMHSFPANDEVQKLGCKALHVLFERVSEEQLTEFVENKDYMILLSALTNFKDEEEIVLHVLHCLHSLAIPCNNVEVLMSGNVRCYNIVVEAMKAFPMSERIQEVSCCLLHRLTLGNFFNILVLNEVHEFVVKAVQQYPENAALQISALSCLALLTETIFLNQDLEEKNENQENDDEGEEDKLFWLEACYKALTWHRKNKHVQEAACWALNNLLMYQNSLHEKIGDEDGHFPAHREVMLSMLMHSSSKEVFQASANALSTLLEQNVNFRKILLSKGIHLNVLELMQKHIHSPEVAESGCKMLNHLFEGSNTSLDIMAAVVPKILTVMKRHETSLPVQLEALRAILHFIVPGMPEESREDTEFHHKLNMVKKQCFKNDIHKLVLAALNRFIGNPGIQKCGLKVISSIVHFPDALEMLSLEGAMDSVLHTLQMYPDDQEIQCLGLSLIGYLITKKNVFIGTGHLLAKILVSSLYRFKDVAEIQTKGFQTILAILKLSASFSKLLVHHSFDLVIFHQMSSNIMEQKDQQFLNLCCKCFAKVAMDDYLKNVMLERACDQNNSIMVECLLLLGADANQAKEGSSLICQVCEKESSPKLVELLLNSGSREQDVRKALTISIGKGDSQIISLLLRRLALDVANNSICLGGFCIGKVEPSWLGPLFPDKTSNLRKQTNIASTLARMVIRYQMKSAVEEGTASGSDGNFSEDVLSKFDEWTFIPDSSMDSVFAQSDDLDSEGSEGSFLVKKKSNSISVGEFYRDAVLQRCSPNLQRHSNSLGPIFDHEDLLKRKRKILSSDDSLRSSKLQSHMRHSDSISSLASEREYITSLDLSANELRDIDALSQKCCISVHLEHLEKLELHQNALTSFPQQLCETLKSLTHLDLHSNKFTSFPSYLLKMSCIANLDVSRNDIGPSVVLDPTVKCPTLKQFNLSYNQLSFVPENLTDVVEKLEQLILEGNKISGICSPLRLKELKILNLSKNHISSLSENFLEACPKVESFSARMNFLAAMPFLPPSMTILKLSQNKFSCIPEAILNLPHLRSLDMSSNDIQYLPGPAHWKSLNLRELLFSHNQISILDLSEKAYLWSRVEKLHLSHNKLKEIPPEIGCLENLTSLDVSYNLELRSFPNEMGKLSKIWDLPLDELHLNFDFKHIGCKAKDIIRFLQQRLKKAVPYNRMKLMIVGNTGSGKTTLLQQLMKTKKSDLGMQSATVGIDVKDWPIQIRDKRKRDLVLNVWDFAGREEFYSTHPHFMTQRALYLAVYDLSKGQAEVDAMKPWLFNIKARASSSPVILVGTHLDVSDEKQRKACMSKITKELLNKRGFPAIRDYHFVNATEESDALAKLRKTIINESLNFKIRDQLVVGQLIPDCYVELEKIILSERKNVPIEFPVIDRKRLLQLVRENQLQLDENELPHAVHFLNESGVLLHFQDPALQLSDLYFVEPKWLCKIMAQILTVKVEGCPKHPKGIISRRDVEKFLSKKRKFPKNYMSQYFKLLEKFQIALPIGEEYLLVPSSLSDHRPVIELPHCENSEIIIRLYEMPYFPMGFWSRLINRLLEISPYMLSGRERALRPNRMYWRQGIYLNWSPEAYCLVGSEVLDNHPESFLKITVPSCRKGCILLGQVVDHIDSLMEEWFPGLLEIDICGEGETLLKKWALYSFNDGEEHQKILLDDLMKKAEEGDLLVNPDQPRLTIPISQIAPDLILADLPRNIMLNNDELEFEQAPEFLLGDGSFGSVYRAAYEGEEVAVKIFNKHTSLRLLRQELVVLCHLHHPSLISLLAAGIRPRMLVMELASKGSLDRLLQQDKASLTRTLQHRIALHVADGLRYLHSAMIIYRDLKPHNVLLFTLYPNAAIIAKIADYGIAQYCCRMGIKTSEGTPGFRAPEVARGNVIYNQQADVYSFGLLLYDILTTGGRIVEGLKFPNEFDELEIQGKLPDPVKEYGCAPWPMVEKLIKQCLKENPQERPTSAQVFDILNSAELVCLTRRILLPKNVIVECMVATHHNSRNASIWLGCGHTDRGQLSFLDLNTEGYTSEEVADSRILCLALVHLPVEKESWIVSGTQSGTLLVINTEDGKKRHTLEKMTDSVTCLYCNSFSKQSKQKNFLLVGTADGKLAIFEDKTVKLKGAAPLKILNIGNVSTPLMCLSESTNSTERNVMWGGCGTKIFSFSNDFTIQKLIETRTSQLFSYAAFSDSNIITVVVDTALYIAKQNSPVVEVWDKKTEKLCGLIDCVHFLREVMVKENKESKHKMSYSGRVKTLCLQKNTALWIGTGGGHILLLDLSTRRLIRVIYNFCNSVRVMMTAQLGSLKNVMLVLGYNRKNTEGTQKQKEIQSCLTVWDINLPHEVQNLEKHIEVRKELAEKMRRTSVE

CC1(Oc2ccc3[nH]nc(-c4cc(N5CCN(C[C@H]6CC[C@H](OC7CCN(c8ccc9c(c8Cl)CN(C8CCC(=O)NC8=O)C9=O)CC7)CC6)CC5)ncn4)c3c2)CC1 (some centres unmarked) [Compound 243, 3-[4-chloro-1-oxo-5-(4-{[(1r,4r)-4-[(4-{6-[5-(1-methylcyclopropoxy)-1H-indazol-3-yl]pyrimidin-4-yl}piperazin-1-yl)methyl]cyclohexyl]oxy}piperidin-1-yl)-2,3-dihydro-1H-isoindol-2-yl]piperidine-2,6-dione]
DC50 [1]: < 10 nM | Dmax [2]: 50 to 70%

C[C@@H]1CN(CC2CCN(c3ccc4c(c3F)CN(C3CCC(=O)NC3=O)C4=O)CC2)CCN1CC1CCN(c2cc(-c3n[nH]c4cnc(OC5(C)CC5)cc34)ncn2)CC1 (stereo partly drawn) [Compound 263, 3-[4-fluoro-5-(4-{[(3R)-3-methyl-4-[(1-{6-[5-(1-methylcyclopropoxy)-1H-pyrazolo[3,4-c]pyridin-3-yl]pyrimidin-4-yl}piperidin-4-yl)methyl]piperazin-1-yl]methyl}piperidin-1-yl)-1-oxo-2,3-dihydro-1H-isoindol-2-yl]piperidine-2,6-dione]
Dmax [3]: ≥ 70% | DC50 [4]: < 10 nM

CC1(Oc2cc3c(-c4cc(N5CCC(CN6CCN(CC7CCN(c8cc9c(cc8F)C(=O)N(C8CCC(=O)NC8=O)C9)CC7)CC6)CC5)ncn4)n[nH]c3cn2)CC1 (centres unmarked) [Compound 191, 3-[6-fluoro-5-[4-[[4-[[1-[6-[5-(1-methylcyclopropoxy)-1H-pyrazolo[3,4-c]pyridin-3-yl]pyrimidin-4-yl]-4-piperidyl]methyl]piperazin-1-yl]methyl]-1-piperidyl]-1-oxo-isoindolin-2-yl]piperidine-2,6-dione]
Dmax [5]: ≥ 70% | DC50 [6]: < 10 nM

CC1(Oc2ccc3[nH]nc(-c4cc(N5CCN(C[C@@H]6CC[C@@H](CN7CCN(c8ccc9c(c8F)CN(C8CCC(=O)NC8=O)C9=O)CC7)OC6)CC5)ncn4)c3c2)CC1 (single isomer, unassigned) [Compound 305]
Dmax [3]: 50 to 70% | DC50 [4]: < 10 nM

CC1(Oc2ccc3n[nH]c(-c4cc(N5CCC6(CC5)CN([C@H]5C[C@H](OC7CCN(c8ccc9c(c8F)CN(C8CCC(=O)NC8=O)C9=O)CC7)C5)C6)ncn4)c3c2)CC1 (some centres unmarked) [Compound 326, 3-(4-fluoro-1-oxo-5-{4-[(1r,3r)-3-(7-{6-[5-(1-methylcyclopropoxy)-2H-indazol-3-yl]pyrimidin-4-yl}-2,7-diazaspiro[3.5]nonan-2-yl)cyclobutoxy]piperidin-1-yl}-2,3-dihydro-1H-isoindol-2-yl)piperidine-2,6-dione]
Dmax [3]: 50 to 70% | DC50 [4]: < 10 nM

CC1(Oc2ccc3[nH]nc(-c4cc(C5CCN(CC6CCN(CC7CCN(c8ccc9c(c8)C(=O)N(C8CCC(=O)NC8=O)C9=O)CC7)CC6)CC5)ncn4)c3c2)CC1 (centres unmarked) [Compound 105, 2-(2,6-dioxo-3-piperidyl)-5-[4-[[4-[[4-[6-[5-(1-methylcyclopropoxy)-1H-indazol-3-yl]pyrimidin-4-yl]-1-piperidyl]methyl]-1-piperidyl]methyl]-1-piperidyl]isoindoline-1,3-dione]
Dmax (endogenous HiBit-tagged LRRK2 in HEK293 cells, 24 hours, read-out: **Endogenous WT Dmax (%)): 50 to 70% | DC50 (endogenous HiBit-tagged LRRK2 in HEK293 cells, 24 hours, read-out: *Endogenous WT DC50): ≥ 100 nM

COc1c(N2CCC(CN3CCN(CC4CCN(c5cc(-c6n[nH]c7cnc(OC8(C)CC8)cc67)ncn5)CC4)C(C)(C)C3)CC2)ccc2c1CN(C1CCC(=O)NC1=O)C2=O (centres unmarked) [Compound 250, 3-{5-[4-({3,3-dimethyl-4-[(1-{6-[5-(1-methylcyclopropoxy)-1H-pyrazolo[3,4-c]pyridin-3-yl]pyrimidin-4-yl}piperidin-4-yl)methyl]piperazin-1-yl}methyl)piperidin-1-yl]-4-methoxy-1-oxo-2,3-dihydro-1H-isoindol-2-yl}piperidine-2,6-dione]
DC50 [1]: < 10 nM | Dmax [2]: 50 to 70%

COc1c(N2CCC(O[C@H]3CC[C@H](OC4CCN(c5cc(-c6n[nH]c7ccc(OC8(C)CC8)cc67)ncn5)CC4)CC3)CC2)ccc2c1CN(C1CCC(=O)NC1=O)C2=O (some centres unmarked) [Compound 248, 3-[4-methoxy-1-oxo-5-(4-{[(1r,4r)-4-[(1-{6-[5-(1-methylcyclopropoxy)-1H-indazol-3-yl]pyrimidin-4-yl}piperidin-4-yl)oxy]cyclohexyl]oxy}piperidin-1-yl)-2,3-dihydro-1H-isoindol-2-yl]piperidine-2,6-dione]
DC50 [1]: < 10 nM | Dmax [2]: 50 to 70%

C[C@@H]1CN(CC2CCN(c3cc(-c4n[nH]c5cnc(OC6(C)CC6)cc45)ncn3)CC2)CCN1CC1CCN(c2ccc3c(c2F)CN(C2CCC(=O)NC2=O)C3=O)CC1 (stereo partly drawn) [Compound 272, 3-[4-fluoro-5-(4-{[(2R)-2-methyl-4-[(1-{6-[5-(1-methylcyclopropoxy)-1H-pyrazolo[3,4-c]pyridin-3-yl]pyrimidin-4-yl}piperidin-4-yl)methyl]piperazin-1-yl]methyl}piperidin-1-yl)-1-oxo-2,3-dihydro-1H-isoindol-2-yl]piperidine-2,6-dione]
Dmax [3]: 50 to 70% | DC50 [4]: < 10 nM

COc1c(N2CCN(C[C@H]3CO[C@H](CN4CCN(c5cc(-c6n[nH]c7cnc(OC8(C)CC8)cc67)ncn5)CC4)CO3)CC2)ccc2c1CN(C1CCC(=O)NC1=O)C2=O (some centres unmarked) [Compound 302, 3-[4-methoxy-5-(4-{[(2s,5r)-5-[(4-{6-[5-(1-methylcyclopropoxy)-1H-pyrazolo[3,4-c]pyridin-3-yl]pyrimidin-4-yl}piperazin-1-yl)methyl]-1,4-dioxan-2-yl]methyl}piperazin-1-yl)-1-oxo-2,3-dihydro-1H-isoindol-2-yl]piperidine-2,6-dione]
Dmax [3]: 50 to 70% | DC50 [4]: < 10 nM

CC1(Oc2cc3c(-c4cc(N5CCN(C[C@H]6CC[C@H](OC7CCN(c8ccc9c(c8F)CN(C8CCC(=O)NC8=O)C9=O)CC7)CC6)CC5)ncn4)n[nH]c3cn2)CC1 (some centres unmarked) [Compound 258, 3-[4-fluoro-1-oxo-5-(4-{[(1r,4r)-4-[(4-{6-[5-(1-methylcyclopropoxy)-1H-pyrazolo[3,4-c]pyridin-3-yl]pyrimidin-4-yl}piperazin-1-yl)methyl]cyclohexyl]oxy}piperidin-1-yl)-2,3-dihydro-1H-isoindol-2-yl]piperidine-2,6-dione]
Dmax [3]: 50 to 70% | DC50 [4]: < 10 nM

COc1cc2c(cc1N1CCC(CN3CCN(CC4CCN(c5cc(-c6n[nH]c7ccc(OC8(C)CC8)cc67)ncn5)CC4)CC3)CC1)CN(C1CCC(=O)NC1=O)C2=O (centres unmarked) [Compound 194, 3-[6-methoxy-5-[4-[[4-[[1-[6-[5-(1-methylcyclopropoxy)-1H-indazol-3-yl]pyrimidin-4-yl]-4-piperidyl]methyl]piperazin-1-yl]methyl]-1-piperidyl]-1-oxo-isoindolin-2-yl]piperidine-2,6-dione]
Dmax [5]: ≥ 70% | DC50 [6]: < 10 nM

COc1c(N2CCC(CN3CCN(CC4CCN(c5cc(-c6n[nH]c7cnc(OC8(C)CC8)cc67)ncn5)CC4)CC3)CC2)ccc2c1CN(C1CCC(=O)NC1=O)C2=O (centres unmarked) [Compound 253, 3-{4-methoxy-5-[4-({4-[(1-{6-[5-(1-methylcyclopropoxy)-1H-pyrazolo[3,4-c]pyridin-3-yl]pyrimidin-4-yl}piperidin-4-yl)methyl]piperazin-1-yl}methyl)piperidin-1-yl]-1-oxo-2,3-dihydro-1H-isoindol-2-yl}piperidine-2,6-dione]
DC50 [1]: < 10 nM | Dmax [2]: 50 to 70%
